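Results reflect a 48-hour exposure of cells in 96-well plates to compound at five concentrations. At the TGI there is no net growth.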
Assays:
Test in all cases: NCI anticancer screen, dose series, 48 h
[1] = test system: SF-268 CNS
[2] = test system: SF-295 CNS
[3] = test system: ACHN renal
[4] = test system: SR leukemia
[5] = test system: T-47D breast
[6] = test system: EKVX NSCLC
[7] = test system: CAKI-1 renal
[8] = test system: MCF7 breast
[9] = test system: HS 578T breast
[10] = test system: OVCAR-5 ovarian
[11] = test system: SK-MEL-2 melanoma
[12] = test system: IGROV1 ovarian
[13] = test system: RXF 393 renal
[14] = test system: HT29 colon
[15] = test system: NCI-H23 lung

Compound	TGI [1]	TGI [2]	TGI [3]	TGI [4]	TGI [5]	TGI [6]	TGI [7]	TGI [8]	TGI [9]	TGI [10]	TGI [11]	TGI [12]	TGI [13]	TGI [14]	TGI [15]
COc1ccc(C)c2c1N[C@](C)([C@]1(C)Nc3c(OC)ccc(C)c3C1=O)C2=O	> 100 µM	> 100 µM	> 100 µM	> 100 µM	> 100 µM	> 100 µM	> 100 µM	> 100 µM	> 100 µM	> 100 µM	> 100 µM	> 100 µM	> 100 µM	> 100 µM	> 100 µM
CCOC(=O)/C(C#N)=C(/NS(=O)(=O)c1cc(C)c(Cl)cc1[S-])[n+]1ccc(N(C)C)cc1	> 100 µM	> 100 µM	> 100 µM	> 100 µM	> 100 µM	> 100 µM	> 100 µM	> 100 µM	> 100 µM	> 100 µM	> 100 µM	> 100 µM	> 100 µM	> 100 µM	> 100 µM
COc1ccc(C2Oc3c(cccc3OC)C=C2[N+](=O)[O-])cc1OC (stereo not drawn)	> 100 µM	71.7 µM	29.3 µM	> 100 µM	> 100 µM	> 100 µM	38.3 µM	> 100 µM	> 100 µM	51.4 µM		24.7 µM	8.76 µM	> 100 µM	22.3 µM
CCCCCCCC1c2cc3[nH]c(cc4nc(cc5[nH]c(cc(n2)[C@@]1(C)CC(=O)N(C)C)c(C)c5CCC(=O)O)C(CCC(=O)O)=C4C)cc3C (stereo partly drawn)	42.9 µM	37.5 µM	35.8 µM	44.6 µM	> 100 µM	> 100 µM	> 100 µM	92.3 µM	40.6 µM	55.5 µM	34 µM	39.6 µM	33.9 µM	39.8 µM	34.1 µM
[N-]=[N+]=NC1(N=[N+]=[N-])C(=O)NN=C(c2ccccc2)C1=O (stereo not drawn)	28.4 µM	> 100 µM	> 100 µM	75.5 µM	94.3 µM	> 100 µM		> 100 µM	> 100 µM			> 100 µM	> 100 µM	> 100 µM	> 100 µM
CC(=O)OCC1OC(n2c(C)c(N=Nc3ccc(C)cc3)c(C)c(C#N)c2=S)C(OC(C)=O)C(OC(C)=O)C1OC(C)=O (stereo not drawn)	> 100 µM	> 100 µM	> 100 µM	> 100 µM	> 100 µM		> 100 µM	> 100 µM	74.7 µM	> 100 µM		> 100 µM	> 100 µM	> 100 µM	> 100 µM
CCOC(=O)Cn1c(=O)c2nc(SC)sc2n(-c2ccc(C)cc2)c1=S	> 89.2 µM	> 100 µM	> 100 µM	> 100 µM	> 100 µM	> 100 µM	> 100 µM	> 100 µM	> 66.5 µM	> 100 µM	96.8 µM	> 100 µM	61.1 µM	> 100 µM	> 89.5 µM
O=C1c2ccccc2C(=O)c2c(OCC3CO3)ccc(OCC3CO3)c21 (stereo not drawn)	2.29 µM	11.8 µM	6.63 µM	1.55 µM	24.1 µM	35.5 µM	10.6 µM	2.59 µM	36.8 µM	30.9 µM	27.8 µM	10.8 µM	8.31 µM	15.1 µM	

Reference: PubChem BioAssay (NCI)
